One compound from US9670242B2, “Tetracyclic anthraquinone derivatives” (Tianjin Hemay Bio-Tech Co., Ltd, priority 2012, dated 2017) can be followed below.

The IC50 is the concentration that inhibits the measured activity by half. Low readings indicate inhibition by little substance, high ones a need for much substance.

The structures appear in SMILES notation.

This test has as its system SK-Br-3 cells. As to the kind of experiment: SK-Br-3 cell growth inhibition test (SRB assay). Type of test: cell-based, human. To be noted: 72 h. The protocol:
SK-Br-3 Cell Growth Inhibition Test (SRB Assay)
II. Reagents and Consumable Materials
Culture medium: 85% DMEM+15% FBS; pancreatin (0.25% (w/v) solution was formulated with PBS, 0.53 mM of EDTA was added in the formulation); PBS; 96-well culture plate.
1. A plate (10 cm) of cells in logarithmic growth phase that were normally cultured was collected;
2. The culture solution was sucked out. The plate was washed with 5 mL of PBS once or twice;
3. 1.5 mL of 0.25% pancreatin was added to the plate to infiltrate the cells;
4. The pancreatin was sucked out. The culture plate was placed in an incubator. Digestion was carried out for about 2 min at 37° C.;
5. 4 mL of complete culture solution was added to the culture plate to stop the digestion. The cells were carefully scoured with micropipette (1 mL) to give a uniform single cell suspension. The suspension was implanted into a 96-well cell culture plate by 10000 cells/100 μL per well. The culture plate was incubated overnight under 5% CO2 at 37° C. In day 2, 100 μL of culture solution comprising a compound was added in each well. The plate was further incubated for 72 h under 5% CO2 at 37° C.;
6. The culture solution was sucked out. 100 uL of TCA fixed cells which were diluted to 10% were added to each well. The plate was kept in a refrigerator for 1 h at 4° C.
7. TCA stationary liquid was sucked out. […]
13. OD values were determined at […]. […]
(Sulforhodamine B stains cellular protein and so reports cell mass.)

Take `COc1cccc2c1C(=O)c1c(O)c3c(c(O)c1C2=O)CC(O)(C(=O)COC(=O)CCC(=O)O)CC3OC1CC(n2cccc2)C(O)C(C)O1` (stereo not shown) [Compound A, 3′-pyrrolyldoxorubicin-14-oxo-succinic acid monoester, reference compound]: half-maximal inhibition (IC50) required 93 nM.
